# Source: patent publication US8507527B2, “Method for stabilizing anti-dementia drug” (EISAI R & D Management Co., Ltd., priority 2004, dated 2013)
# Assay: pH of aqueous solutions or suspensions of additives, polymers and donepezil hydrochloride
# Type: physicochemical
# Settings: for pH OF ADDITIVES (2.5% AQUEOUS SOLUTIONS OR SUSPENSIONS): additive of the example alone, dissolved or suspended in purified water at 2.5%
Compound,pH OF ADDITIVES (2.5% AQUEOUS SOLUTIONS OR SUSPENSIONS),pH (2.5% aqueous solution or suspension)
"O=C1O[C@H]([C@@H](O)CO)C(O)=C1O [ASCORBIC ACID, ascorbic acid]",2.6,
"N[C@@H](CC(=O)O)C(=O)O [ASPARTIC ACID, aspartic acid]",3.0,
"O=C(O)CC(O)(CC(=O)O)C(=O)O [CITRIC ACID, citric acid]",2.0,
"Cl.N[C@@H](CS)C(=O)O [CYSTEINE HYDROCHLORIDE, cysteine hydrochloride]",1.5,
"N[C@@H](CS)C(=O)O [CYSTEINE, cysteine]",5.1,
"O=C([O-])CC(O)(CC(=O)[O-])C(=O)O.[Na+].[Na+] [DISODIUM CITRATE, disodium citrate]",5.2,
"O=C([O-])CN(CCN(CC(=O)[O-])CC(=O)O)CC(=O)O.[Na+].[Na+] [DISODIUM EDETATE, disodium edetate]",4.5,
"OC[C@H]1O[C@@H](O[C@H]2[C@H](O)[C@@H](O)C(O)O[C@@H]2CO)[C@H](O)[C@@H](O)[C@H]1O (some centres unmarked) [FlowLac100, LACTOSE]",,5.5
"NCC(=O)O [GLYCINE, glycine]",6.2,
"CSCC[C@H](N)C(=O)O [METHIONINE, methionine]",5.9,
"O=C1O[C@H]([C@@H](O)CO)C([O-])=C1O.[Na+] [SODIUM ASCORBATE, sodium ascorbate]",7.5,
"N[C@@H](CC(=O)[O-])C(=O)[O-].[Na+].[Na+] [SODIUM ASPARTATE, sodium aspartate]",6.8,
"O=C([O-])CC(O)(CC(=O)[O-])C(=O)[O-].[Na+].[Na+].[Na+] [SODIUM CITRATE, sodium citrate]",8.3,
sodium dihydrogen citrate [SODIUM […]],3.7,
